Experimental data taken from the supplement of paper PMC10307832.

What was measured:
Assay in all cases: relative viability (nuclei count vs DMSO), 5 days (fraction); higher = more cells survive
[1] = compound: C1=CC2=C(C=C(C(=C2N=C1)O)N=NC3=CC4=C(C=C3)C=C(C=C4)S(=O)(=O)O)S(=O)(=O)O + CC1(C)CCC(c2ccc(Cl)cc2)=C(CN2CCN(c3ccc(C(=O)NS(=O)(=O)c4ccc(N[C@H](CCN5CCOCC5)CSc5ccccc5)c(S(=O)(=O)C(F)(F)F)c4)cc3)CC2)C1 [Navitoclax] (partner 0.5 µM)
How it was run: (§1)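 Relative viability was taken as the ratio of nuclei in treated wells to nuclei in vehicle wells. Lung cancer cell lines in 1536-well plates received compounds by pin tool one day after seeding, either one drug alone or a fixed anchor-drug dose plus five library-drug doses (not always all listed) in √10 steps. Nuclei were counted on 4× images after 5 days of treatment, and values are medians of duplicate plates.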

[2] = compound: C1=CC2=C(C=C(C(=C2N=C1)O)N=NC3=CC4=C(C=C3)C=C(C=C4)S(=O)(=O)O)S(=O)(=O)O + CS(=O)(=O)CCNCc1ccc(-c2ccc3ncnc(Nc4ccc(OCc5cccc(F)c5)c(Cl)c4)c3c2)o1 [Lapatinib] (partner 2 µM)
How it was run: as §1

AT-7519 + Luminespib = compound: O=C(NC1CCNCC1)c1n[nH]cc1NC(=O)c1c(Cl)cccc1Cl [AT-7519] + CCNC(=O)c1noc(-c2cc(C(C)C)c(O)cc2O)c1-c1ccc(CN2CCOCC2)cc1 [Luminespib] (partner 0.01 µM)
How it was run: as §1

AT-7519 + Dasatinib = compound: O=C(NC1CCNCC1)c1n[nH]cc1NC(=O)c1c(Cl)cccc1Cl [AT-7519] + Cc1nc(Nc2ncc(C(=O)Nc3c(C)cccc3Cl)s2)cc(N2CCN(CCO)CC2)n1 [Dasatinib] (partner 0.075 µM)
How it was run: as §1

Cell Line	relative viability ([1]; first compound 0.08 µM)	relative viability ([1]; first compound 0.253 µM)	relative viability ([1]; first compound 0.8 µM)	relative viability ([1]; first compound 2.53 µM)	relative viability ([1]; first compound 8 µM)	relative viability ([2]; first compound 0.08 µM)	relative viability ([2]; first compound 0.253 µM)	relative viability ([2]; first compound 0.8 µM)	relative viability ([2]; first compound 2.53 µM)	relative viability ([2]; first compound 8 µM)	relative viability (AT-7519 + Luminespib; first compound 0.01 µM)	relative viability (AT-7519 + Luminespib; first compound 0.03162 µM)	relative viability (AT-7519 + Luminespib; first compound 0.3162 µM)	relative viability (AT-7519 + Luminespib; first compound 1 µM)	relative viability (AT-7519 + Dasatinib; first compound 0.01 µM)	relative viability (AT-7519 + Dasatinib; first compound 0.03162 µM)	relative viability (AT-7519 + Dasatinib; first compound 0.3162 µM)	relative viability (AT-7519 + Dasatinib; first compound 1 µM)
NCI-H1734	1.13	0.86	0.784	0.877	0.884	1.13	1.03	1.05	0.911	1.09	0.2	0.174	0.164	0.0866	0.445	0.421	0.391	0.31
NCI-H2126	0.882	0.792	0.845	0.935	0.832	0.808	0.723	0.723	0.777	0.759	1.02	0.916	0.805	0.297	0.658	0.626	0.497	0.357
EMC-BAC-2	1.45	1.11	1.13	1.2	1.11	0.826	0.881	0.877	0.927	0.74	1.21	1.17	1.19	1.14	0.358	0.327	0.296	0.227
NCI-H1993	1.05	0.913	1.05	0.893	1.01	0.82	0.71	0.801	0.723	0.589	0.788	0.823	0.844	0.388	0.626	0.516	0.441	0.312
